# Several values for one entry are separate records, joined by “and”; a condition that tells them apart may be missing. Equal values may be shown once.
# T1: DIR domain of OsJAC1 (Oryza sativa, UniProt Q306J3, T49I)
# T1 construct: gene JAC1; isolated dirigent domain SKLQITPCGM...FCPLLKGS; Thr to Ile point mutation (NDKKIGLG); N-terminal His6 tag and thrombin site kept; E. coli BL21(DE3), pET15b(+); dimer/tetramer by SEC
# T1 sequence (Q306J3 5-159 T49I): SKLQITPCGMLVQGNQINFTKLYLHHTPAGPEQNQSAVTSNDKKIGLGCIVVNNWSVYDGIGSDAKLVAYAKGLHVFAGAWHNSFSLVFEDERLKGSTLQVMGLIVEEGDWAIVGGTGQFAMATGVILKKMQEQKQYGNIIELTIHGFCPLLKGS
# T2: OsJAC1 (Oryza sativa, UniProt Q306J3)
# T2 construct: gene JAC1; full length, DIR + JRL domains; N-terminal His6 tag and thrombin site kept; E. coli BL21(DE3), pColdIV
# T2 sequence (Q306J3 1-306): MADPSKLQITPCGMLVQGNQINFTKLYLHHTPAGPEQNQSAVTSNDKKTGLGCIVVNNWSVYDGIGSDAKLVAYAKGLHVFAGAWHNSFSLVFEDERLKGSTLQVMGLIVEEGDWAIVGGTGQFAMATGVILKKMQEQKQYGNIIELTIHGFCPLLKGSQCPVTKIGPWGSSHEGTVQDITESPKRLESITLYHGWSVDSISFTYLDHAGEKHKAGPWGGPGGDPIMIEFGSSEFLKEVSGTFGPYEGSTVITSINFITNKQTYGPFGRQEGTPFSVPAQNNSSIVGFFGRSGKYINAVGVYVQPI
# T3: JRL domain of OsJAC1 (Oryza sativa, UniProt Q306J3)
# T3 construct: gene JAC1; isolated jacalin-related lectin domain QCPVTKIGPWGSSHEG...INAVGVYVQPI; N-terminal His6 tag and thrombin site kept; E. coli BL21(DE3), pET15b(+); thermal shifts measured in 1:1 mixture with the isolated DIR domain
# T3 sequence (Q306J3 160-306): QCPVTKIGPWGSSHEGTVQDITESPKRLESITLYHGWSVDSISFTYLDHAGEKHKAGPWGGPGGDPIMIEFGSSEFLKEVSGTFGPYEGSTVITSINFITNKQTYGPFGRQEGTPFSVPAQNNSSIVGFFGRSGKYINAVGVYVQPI
# B1: monocot chimeric jacalin OsJAC1 from Oryza sativa, full-length protein, His6-tagged (natural protein)
# chain: T2 sequence (Q306J3 1-306)
# notes: OsJAC1 of rice (Oryza sativa), full-length protein; numbers count on: the His6-tagged construct as printed (23 tag and linker residues before M24); no cleavage of the tag is described; also called full-length OsJAC1; chimeric lectin OsJAC1; source: E. coli BL21(DE3), purified (IMAC on Ni-NTA, SEC); not shown: His6, N-terminal, kept
# What was measured:
# DIR domain of OsJAC1 [1] = biological target: T1, DIR domain of OsJAC1; experiment: nano differential scanning fluorimetry; near-UV CD; assay type: binding; details: 50 mM sugar, 4 mM DTT, 50 mM KPi pH 7.4; CD with 1 mM sugar
# DIR domain of OsJAC1 [2] = biological target: T1, DIR domain of OsJAC1; experiment: nano differential scanning fluorimetry; assay type: binding; details: 50 mM sugar, 4 mM DTT, 50 mM KPi pH 7.4
# OsJAC1 [3] = biological target: T2, OsJAC1; experiment: nano differential scanning fluorimetry; assay type: binding; details: 50 mM sugar, 4 mM DTT, 50 mM KPi pH 7.4, TM2 = DIR domain transition
# OsJAC1 [4] = biological target: T2, OsJAC1; experiment: nano differential scanning fluorimetry; assay type: binding; details: 50 mM sugar, 4 mM DTT, 50 mM KPi pH 7.4; TM1 = JRL domain transition
# JRL domain of OsJAC1 = biological target: T3, JRL domain of OsJAC1; experiment: nano differential scanning fluorimetry; assay type: binding; details: 50 mM sugar, 4 mM DTT, 50 mM KPi pH 7.4; 1:1 mixture with DIR domain
# [5] = biological target: DIR (dirigent) domain protein of OsJAC1, His6-tagged (Oryza sativa); experiment: SEC; HiLoad 16/600 Superdex 200 pg; 50 mM KPi pH 7.4, 300 mM NaCl; 1 mL of 10 mg/mL protein injected, 1 mL/min; apparent masses from calibration proteins
# [6] = biological target: the molecule itself; experiment: dynamic light scattering; OsJAC1 1.1 mg/mL in 15 mM TRIS-HCl pH 7.4, alone or with 150 mM CaCl2, 50 mM lactose, 150 mM MgSO4 or 4 mM DTT; apparent molecular masses
molecule,measurement,setting,value
OC[C@H]1O[C@@H](O[C@@H]2[C@H](O)[C@@H](O)C(O)O[C@@H]2CO)[C@H](O)[C@@H](O)[C@H]1O (some centres unmarked) [galactobiose],dTM2,DIR domain of OsJAC1 [1],"galactobiose (DIR domain) and laminaribiose (JRL domain), caused major shifts in the CD spectra"
OC[C@H]1OC(O)[C@H](O)[C@@H](O)[C@H]1O (some centres unmarked) [galactose],dTM2,DIR domain of OsJAC1 [2]; printed as up to,~ 3 K
same,dTM2,OsJAC1 [3]; printed as up to,~ 2 K
OC[C@H]1OC(O)[C@H](O)[C@@H](O)[C@@H]1O (some centres unmarked) [glucose],dTM1,OsJAC1 [4],1 K
same,dTM1,JRL domain of OsJAC1,1 K
OC[C@H]1O[C@@H](O[C@H]2[C@H](O)[C@@H](O)C(O)O[C@@H]2CO)[C@H](O)[C@@H](O)[C@H]1O (some centres unmarked) [lactose],dTM2,DIR domain of OsJAC1 [2],"(e.g., galactose and lactose) had a positive impact on TM2 of the DIR domain"
same,dTM2,OsJAC1 [3],"(e.g., galactose and lactose) had a positive impact on TM2 of the DIR domain"
OC[C@H]1OC(O)[C@@H](O)[C@@H](O)[C@@H]1O (some centres unmarked) [mannose],dTM1,OsJAC1 [4],1 K
same,dTM1,JRL domain of OsJAC1,1 K
"DIR (dirigent) domain protein of OsJAC1, His6-tagged (domain or fragment)",stoichiometry N,[5],2 and 4
B1,binding result,[6],binds
